According to the supplement of paper PMC10307832:

How the values were obtained:
Assay in all cases: relative viability (nuclei count vs DMSO), 5 days (fraction); higher = more cells survive
IU1-47 + Decitabine = compound: CC1=CC(=C(N1C2=CC=C(C=C2)Cl)C)C(=O)CN3CCCCC3 [IU1-47] + Nc1ncn([C@H]2C[C@H](O)[C@@H](CO)O2)c(=O)n1 [Decitabine] (partner 2 µM)
Outline: (§1)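 Relative viability is defined as nuclei in treated wells over nuclei in vehicle wells. Duplicate plates were run and medians reported. Lung cancer cell lines in 1536-well plates were dosed by pin tool one day after seeding, with one drug or with a fixed anchor-drug dose plus five library-drug doses (not always all listed) in √10 steps, and nuclei were counted after 5 days.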

FG-4592 + AZD7762 = compound: Cc1nc(C(=O)NCC(=O)O)c(O)c2ccc(Oc3ccccc3)cc12 [FG-4592] + NC(=O)Nc1cc(-c2cccc(F)c2)sc1C(=O)N[C@H]1CCCNC1 [AZD7762] (partner 0.2 µM)
Outline: as §1

FG-4592 + Trametinib = compound: Cc1nc(C(=O)NCC(=O)O)c(O)c2ccc(Oc3ccccc3)cc12 [FG-4592] + CC(=O)Nc1cccc(-n2c(=O)n(C3CC3)c(=O)c3c(Nc4ccc(I)cc4F)n(C)c(=O)c(C)c32)c1 [Trametinib] (partner 0.02 µM)
Outline: as §1

IU1-47 + Pictilisib = compound: CC1=CC(=C(N1C2=CC=C(C=C2)Cl)C)C(=O)CN3CCCCC3 [IU1-47] + CS(=O)(=O)N1CCN(Cc2cc3nc(-c4cccc5[nH]ncc45)nc(N4CCOCC4)c3s2)CC1 [Pictilisib] (partner 1 µM)
Outline: as §1

| Cell Line | relative viability (IU1-47 + Decitabine; first compound 0.08 µM) | relative viability (IU1-47 + Decitabine; first compound 0.253 µM) | relative viability (IU1-47 + Decitabine; first compound 0.8 µM) | relative viability (IU1-47 + Decitabine; first compound 2.53 µM) | relative viability (IU1-47 + Decitabine; first compound 8 µM) | relative viability (FG-4592 + AZD7762; first compound 0.08 µM) | relative viability (FG-4592 + AZD7762; first compound 0.253 µM) | relative viability (FG-4592 + AZD7762; first compound 0.8 µM) | relative viability (FG-4592 + AZD7762; first compound 2.53 µM) | relative viability (FG-4592 + AZD7762; first compound 8 µM) | relative viability (FG-4592 + Trametinib; first compound 0.08 µM) | relative viability (FG-4592 + Trametinib; first compound 0.253 µM) | relative viability (FG-4592 + Trametinib; first compound 0.8 µM) | relative viability (FG-4592 + Trametinib; first compound 2.53 µM) | relative viability (FG-4592 + Trametinib; first compound 8 µM) | relative viability (IU1-47 + Pictilisib; first compound 0.08 µM) | relative viability (IU1-47 + Pictilisib; first compound 0.253 µM) | relative viability (IU1-47 + Pictilisib; first compound 0.8 µM) | relative viability (IU1-47 + Pictilisib; first compound 8 µM) | relative viability (IU1-47 + Pictilisib; first compound 2.53 µM) |
| --- | --- | --- | --- | --- | --- | --- | --- | --- | --- | --- | --- | --- | --- | --- | --- | --- | --- | --- | --- | --- |
| 201T | 0.891 | 0.864 | 0.943 | 0.867 | 0.856 | 0.579 | 0.595 | 0.453 | 0.559 | 0.555 | 0.691 | 0.695 | 0.719 | 0.772 | 0.708 | 0.672 | 0.682 | 0.709 | 0.664 | – |
| A549 | 0.284 | 0.321 | 0.335 | 0.253 | 0.221 | – | – | – | – | – | – | – | – | – | – | 0.637 | 0.53 | 0.542 | 0.423 | 0.673 |
| A-427 | 0.556 | 0.583 | 0.517 | 0.547 | 0.5 | 0.757 | 0.777 | 0.665 | 0.773 | 0.717 | 0.772 | 0.724 | 0.677 | 0.72 | 0.723 | 0.736 | 0.84 | 0.789 | 0.632 | – |
| ABC-1 | 1.23 | 1.32 | 0.922 | – | 1.19 | 0.665 | 0.762 | 0.794 | 1.09 | 0.693 | – | – | – | – | – | 0.766 | 0.711 | 0.895 | 0.671 | – |
| BEN | 0.713 | 0.729 | 0.848 | 0.507 | 0.668 | 0.555 | 0.617 | 0.476 | 0.666 | 0.527 | 0.916 | 0.913 | 0.783 | 0.879 | 0.871 | 0.644 | 0.566 | 0.583 | 0.594 | 0.41 |
| CAL-12T | – | – | – | – | – | 0.594 | 0.59 | 0.513 | 0.523 | 0.717 | 0.367 | 0.307 | 0.301 | 0.29 | 0.219 | 0.448 | 0.392 | 0.537 | 0.396 | 0.413 |
| COR-L23 | 0.337 | 0.45 | 0.481 | 0.432 | 0.436 | – | – | – | – | – | 0.678 | 0.519 | 0.608 | 0.508 | 0.355 | 0.936 | 0.877 | 0.874 | 0.905 | 0.652 |
| COR-L 105 | 0.793 | 0.624 | 0.677 | 0.751 | 0.66 | – | – | – | – | – | 0.45 | 0.461 | 0.445 | 0.434 | 0.397 | 0.421 | 0.411 | 0.352 | 0.396 | 0.379 |
| Calu-6 | – | – | – | – | – | – | – | – | – | – | – | – | – | – | – | 1.13 | 1.07 | 0.861 | 0.856 | 0.972 |
| ChaGo-K-1 | 0.531 | 0.529 | 0.542 | 0.536 | 0.533 | 0.846 | 0.888 | 0.856 | 0.93 | 0.66 | 0.953 | 0.79 | 0.899 | 0.846 | 0.931 | 0.753 | 0.758 | 0.62 | 0.43 | 0.457 |
| EBC-1 | – | – | – | – | – | – | – | – | – | – | – | – | – | – | – | 0.45 | 0.387 | 0.416 | 0.336 | 0.501 |
| EKVX | 0.376 | 0.339 | 0.364 | – | 0.352 | 0.732 | 0.628 | 0.758 | 0.665 | 0.747 | 0.318 | 0.352 | 0.334 | 0.332 | 0.24 | 0.555 | 0.549 | 0.459 | 0.463 | 0.487 |
| EMC-BAC-2 | 1.07 | 1.03 | 0.996 | 1.07 | 0.924 | 1.17 | 0.903 | 0.901 | 1.08 | 1 | 0.939 | 0.892 | – | 0.845 | 0.88 | 0.547 | 0.51 | 0.545 | 0.489 | 0.572 |
| EPLC-272H | 0.362 | 0.38 | 0.4 | – | 0.34 | 0.194 | 0.426 | 0.224 | 0.181 | 0.15 | 0.288 | 0.232 | 0.234 | 0.303 | 0.308 | 0.301 | 0.318 | 0.313 | 0.185 | – |
| H3255 | 0.696 | 0.681 | 0.689 | – | 0.453 | 0.902 | 0.802 | 0.995 | 0.754 | 0.831 | 0.6 | 0.547 | 0.5 | 0.602 | 0.532 | 0.542 | 0.431 | 0.488 | 0.522 | 0.537 |
| HARA | 0.494 | – | 0.524 | 0.489 | 0.486 | – | – | – | 0.251 | 0.431 | – | – | – | 0.586 | 0.667 | 0.407 | 0.504 | 0.371 | 0.336 | 0.509 |
| HCC-15 | 0.619 | 0.586 | 0.63 | 0.552 | 0.461 | 1.29 | 1.25 | 1.14 | 1.18 | 1.25 | 0.41 | 0.359 | 0.352 | 0.395 | 0.412 | 0.8 | 0.703 | 0.76 | 0.65 | 0.427 |
| HCC-44 | 0.982 | 0.938 | 0.966 | 0.917 | 1.03 | 0.993 | 1.01 | 1.16 | 1.06 | 0.997 | 1.06 | 1.08 | 1.1 | 0.991 | 1.08 | 0.551 | 0.603 | 0.665 | 0.593 | 0.672 |
| HCC-78 | 0.643 | 0.682 | 0.71 | 0.668 | 0.723 | 0.558 | – | 0.534 | 0.625 | 0.662 | 0.719 | – | 0.741 | 0.578 | 0.743 | 0.192 | 0.19 | 0.218 | 0.206 | 0.189 |
| HCC-366 | 0.375 | 0.382 | 0.349 | 0.389 | 0.272 | 0.243 | 0.248 | 0.28 | 0.364 | 0.269 | 0.326 | 0.347 | 0.246 | 0.361 | 0.271 | 0.215 | 0.115 | 0.149 | 0.145 | 0.137 |
